# Measured values taken from US20070049593A1 (priority 2004, published 2007).
# Counter-ions that a name gives are not always drawn.
# Biological target: T1, HCV polymerase (Hepatitis C virus genotype 1b, UniProt P26663)
# T1 construct: a region encoding NS5B (J Virol 1991 March, 65(3), 1105-13, 544 amino acids after deletion of 47 amino acids on the C-terminal); 6xHis (C); made in house; host or cells: Escherichia coli
# Assay: biochemical
# Set-up: species or system HCV BK strain
# Summary of the method: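 His-tagged NS5B (BK strain, 47-aa C-terminal deletion, E. coli-expressed) at 0.5 μg/ml copied 5 μg/ml run-off RNA bearing the HCV 3′ UTR with 2 μM UTP plus [3H]UTP, 50 μM ATP/GTP, in pH 7.5 Tris with 5 mM MgCl2, 25 °C, 90 min. TCA-precipitated RNA was counted and IC50 calculated.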
# T1 sequence (P26663 2420-2963): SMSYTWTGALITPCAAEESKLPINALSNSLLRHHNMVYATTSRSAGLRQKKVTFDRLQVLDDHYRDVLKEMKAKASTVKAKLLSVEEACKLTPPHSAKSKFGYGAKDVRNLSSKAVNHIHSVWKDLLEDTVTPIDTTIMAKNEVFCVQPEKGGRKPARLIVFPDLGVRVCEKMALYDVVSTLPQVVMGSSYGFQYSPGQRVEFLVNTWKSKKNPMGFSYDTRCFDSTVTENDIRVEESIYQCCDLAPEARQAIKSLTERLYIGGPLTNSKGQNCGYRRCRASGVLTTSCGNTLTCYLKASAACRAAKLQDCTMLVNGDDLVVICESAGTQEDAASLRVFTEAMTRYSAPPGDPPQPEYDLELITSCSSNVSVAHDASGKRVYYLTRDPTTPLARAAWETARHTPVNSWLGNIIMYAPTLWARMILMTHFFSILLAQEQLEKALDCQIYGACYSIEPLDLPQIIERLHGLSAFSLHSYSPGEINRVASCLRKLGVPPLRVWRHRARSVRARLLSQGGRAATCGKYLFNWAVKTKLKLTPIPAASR
row,Structure (SMILES),IC50 [nM]
1,"O=C(O)c1ccc2c(C3CCCCC3)c3n(c2c1)CCN(CCN1CCCCC1)c1cc(C(F)(F)F)ccc1-3 [Example 1-159, 13-cyclohexyl-5-[2-(piperidin-1-yl)ethyl]-3-trifluoromethyl-6,7-dihydro-5H-benzo[5,6][1,4]diazepino[7,1-a]indole-10-carboxylic acid dihydrochloride]",< 100
2,"CCN1CCN(CCN2CCn3c(c(C4CCCCC4)c4ccc(C(=O)O)cc43)-c3ccc(F)cc32)CC1 [Example 1-160, 13-cyclohexyl-5-[2-(4-ethylpiperazin-1-yl)ethyl]-3-fluoro-6,7-dihydro-5H-benzo[5,6][1,4]diazepino[7,1-a]indole-10-carboxylic acid trihydrochloride]",< 100
3,"CC(C)(C)OC(=O)N1CCCCC1CCN1CCn2c(c(C3CCCCC3)c3ccc(C(=O)O)cc32)-c2ccccc21 (stereo not drawn) [Example 1-161, 5-[2-(1-tert-butoxycarbonylpiperidin-2-yl)ethyl]-13-cyclohexyl-6,7-dihydro-5H-benzo[5,6][1,4]diazepino[7,1-a]indole-10-carboxylic acid monohydrochloride]",< 100
4,"CCN1CCN(C(=O)CN2CCn3c(c(C4CCCCC4)c4ccc(C(=O)O)cc43)-c3ccc(F)cc32)CC1 [Example 1-162, 13-cyclohexyl-5-[2-(4-ethylpiperazin-1-yl)-2-oxoethyl]-3-fluoro-6,7-dihydro-5H-benzo[5,6][1,4]diazepino[7,1-a]indole-10-carboxylic acid dihydrochloride]",< 100
5,"O=C(O)c1ccc2c(C3CCCCC3)c3n(c2c1)CCN(CCc1ccccn1)c1ccccc1-3 [Example 1-163, 13-cyclohexyl-5-[2-(pyridin-2-yl)ethyl]-6,7-dihydro-5H-benzo[5,6][1,4]diazepino[7,1-a]indole-10-carboxylic acid dihydrochloride]",< 100
6,"COCCN1CCn2c(c(C3CCCCC3)c3ccc(C(=O)O)cc32)-c2ccccc21 [Example 1-164, 13-cyclohexyl-5-(2-methoxyethyl)-6,7-dihydro-5H-benzo[5,6][1,4]diazepino[7,1-a]indole-10-carboxylic acid monohydrochloride]",< 100
7,"O=C(O)c1ccc2c(C3CCCCC3)c3n(c2c1)CCN(CCC1CCCNC1)c1ccccc1-3 (stereo not drawn) [Example 1-165, 13-cyclohexyl-5-[2-(piperidin-3-yl)ethyl]-6,7-dihydro-5H-benzo[5,6][1,4]diazepino[7,1-a]indole-10-carboxylic acid dihydrochloride]",< 100
8,"CCN1CCCC(CCN2CCn3c(c(C4CCCCC4)c4ccc(C(=O)O)cc43)-c3ccccc32)C1 (stereo not drawn) [Example 1-166, 13-cyclohexyl-5-[2-(1-ethylpiperidin-3-yl)ethyl]-6,7-dihydro-5H-benzo[5,6][1,4]diazepino[7,1-a]indole-10-carboxylic acid dihydrochloride]",< 100
9,"CC(C)(C)OC(=O)N1CCCC(CCN2CCn3c(c(C4CCCCC4)c4ccc(C(=O)O)cc43)-c3ccccc32)C1 (stereo not drawn) [Example 1-167, 5-[2-(1-tert-butoxycarbonylpiperidin-3-yl)ethyl]-13-cyclohexyl-6,7-dihydro-5H-benzo[5,6][1,4]diazepino[7,1-a]indole-10-carboxylic acid]",100 to 1000
10,"Cc1ccc2c(c1)N(CCN1CCCOCC1)CCn1c-2c(C2CCCCC2)c2ccc(C(=O)O)cc21 [Example 1-168, 13-cyclohexyl-3-methyl-5-[2-(1,4-oxazepan-4-yl)ethyl]-6,7-dihydro-5H-benzo[5,6][1,4]diazepino[7,1-a]indole-10-carboxylic acid]",< 100
11,"O=C(O)c1ccc2c(C3CCCCC3)c3n(c2c1)CCN(CCN1CCCOCC1)c1cc(Cl)ccc1-3 [Example 1-169, 3-chloro-13-cyclohexyl-5-[2-(1,4-oxazepan-4-yl)ethyl]-6,7-dihydro-5H-benzo[5,6][1,4]diazepino[7,1-a]indole-10-carboxylic acid monohydrochloride]",< 100
12,"O=C(O)c1ccc2c(C3CCCCC3)c3n(c2c1)CCN(CCN1CCCOCC1)c1cc(F)ccc1-3 [Example 1-170, 13-cyclohexyl-3-fluoro-5-[2-(1,4-oxazepan-4-yl)ethyl]-6,7-dihydro-5H-benzo[5,6][1,4]diazepino[7,1-a]indole-10-carboxylic acid dihydrochloride]",< 100
13,"O=C(O)c1ccc2c(C3CCCCC3)c3n(c2c1)CCN(CC(=O)N1CCC(F)(F)CC1)c1ccccc1-3 [Example 1-171, 13-cyclohexyl-5-[2-(4,4-difluoropiperidin-1-yl)-2-oxoethyl]-6,7-dihydro-5H-benzo[5,6][1,4]diazepino[7,1-a]indole-10-carboxylic acid monohydrochloride]",< 100
14,"O=C(O)c1ccc2c(C3CCCCC3)c3n(c2c1)CCN(CCN1CCC(C(F)(F)F)CC1)c1ccccc1-3 [Example 1-172, 13-cyclohexyl-5-[2-(4-trifluoromethylpiperidin-1-yl)ethyl]-6,7-dihydro-5H-benzo[5,6][1,4]diazepino[7,1-a]indole-10-carboxylic acid dihydrochloride]",< 100
15,"CCCN1CCC(CCN2CCn3c(c(C4CCCCC4)c4ccc(C(=O)O)cc43)-c3ccccc32)CC1 [Example 1-173, 13-cyclohexyl-5-[2-(1-propylpiperidin-4-yl)ethyl]-6,7-dihydro-5H-benzo[5,6][1,4]diazepino[7,1-a]indole-10-carboxylic acid dihydrochloride]",< 100
16,"O=C(O)c1ccc2c(C3CCCCC3)c3n(c2c1)CCN(CCN1CCC(F)(F)CC1)c1ccccc1-3 [Example 1-174, 13-cyclohexyl-5-[2-(4,4-difluoropiperidin-1-yl)ethyl]-6,7-dihydro-5H-benzo[5,6][1,4]diazepino[7,1-a]indole-10-carboxylic acid dihydrochloride]",< 100
17,"CCN1CCC(=C(F)CN2CCn3c(c(C4CCCCC4)c4ccc(C(=O)O)cc43)-c3ccccc32)CC1 [Example 1-175, 13-cyclohexyl-5-[2-(1-ethylpiperidin-4-ylidene)-2-fluoroethyl]-6,7-dihydro-5H-benzo[5,6][1,4]diazepino[7,1-a]indole-10-carboxylic acid dihydrochloride]",< 100
18,"O=C(O)c1ccc2c(C3CCCCC3)c3n(c2c1)CCN(CCN1CCCCC1)c1ccc(Cl)cc1-3 [Example 1-176, 2-chloro-13-cyclohexyl-5-[2-(piperidin-1-yl)ethyl]-6,7-dihydro-5H-benzo[5,6][1,4]diazepino[7,1-a]indole-10-carboxylic acid dihydrochloride]",< 100
19,"O=C(O)c1ccc2c(C3CCCCC3)c3n(c2c1)CCN(CCC1CCCCN1)c1ccccc1-3 (stereo not drawn) [Example 1-177, 13-cyclohexyl-5-[2-(piperidin-2-yl)ethyl]-6,7-dihydro-5H-benzo[5,6][1,4]diazepino[7,1-a]indole-10-carboxylic acid dihydrochloride]",< 100
20,"CCN1CCCCC1CCN1CCn2c(c(C3CCCCC3)c3ccc(C(=O)O)cc32)-c2ccccc21 (stereo not drawn) [Example 1-178, 13-cyclohexyl-5-[2-(1-ethylpiperidin-2-yl)ethyl]-6,7-dihydro-5H-benzo[5,6][1,4]diazepino[7,1-a]indole-10-carboxylic acid dihydrochloride]",< 100
21,"CSc1ccc2c(c1)N(CCN1CCCCC1)CCn1c-2c(C2CCCCC2)c2ccc(C(=O)O)cc21 [Example 1-179, 13-cyclohexyl-3-methylsulfanyl-5-[2-(piperidin-1-yl)ethyl]-6,7-dihydro-5H-benzo[5,6][1,4]diazepino[7,1-a]indole-10-carboxylic acid dihydrochloride]",< 100
22,"NC(=O)c1ccc2c(C3CCCCC3)c3n(c2c1)CCN(CCN1CCCCC1)c1cc(Cl)ccc1-3 [Example 1-180, 3-chloro-13-cyclohexyl-5-[2-(piperidin-1-yl)ethyl]-6,7-dihydro-5H-benzo[5,6][1,4]diazepino[7,1-a]indole-10-carboxamide dihydrochloride]",< 100
23,"O=C(O)c1ccc2c(C3CCCCC3)c3n(c2c1)CCN(CCc1cccnc1)c1ccccc1-3 [Example 1-181, 13-cyclohexyl-5-[2-(pyridin-3-yl)ethyl]-6,7-dihydro-5H-benzo[5,6][1,4]diazepino[7,1-a]indole-10-carboxylic acid dihydrochloride]",< 100
24,"O=C(O)c1ccc2c(C3CCCCC3)c3n(c2c1)CCN(CCc1ccncc1)c1ccccc1-3 [Example 1-182, 13-cyclohexyl-5-[2-(pyridin-4-yl)ethyl]-6,7-dihydro-5H-benzo[5,6][1,4]diazepino[7,1-a]indole-10-carboxylic acid dihydrochloride]",< 100
25,"O=C(O)c1ccc2c(C3CCCCC3)c3n(c2c1)CCN(CCN1C[C@H]2CCCC[C@H]2C1)c1ccccc1-3 [Example 1-183, 13-cyclohexyl-5-[(3aS,7aR)-2-(octahydroisoindol-2-yl)ethyl]-6,7-dihydro-5H-benzo[5,6][1,4]diazepino[7,1-a]indole-10-carboxylic acid dihydrochloride]",< 100
26,"O=C(O)c1ccc2c(C3CCCCC3)c3n(c2c1)CCN(CCN1CCC2(CCCC2)CC1)c1ccccc1-3 [Example 1-184, 5-[2-(8-azaspiro[4.5]decan-8-yl)ethyl]-13-cyclohexyl-6,7-dihydro-5H-benzo[5,6][1,4]diazepino[7,1-a]indole-10-carboxylic acid dihydrochloride]",< 100
27,"CCN(CC)CCN1CCn2c(c(C3CCCCC3)c3ccc(C(=O)O)cc32)-c2ccccc21 [Example 1-185, 13-cyclohexyl-5-(2-diethylaminoethyl)-6,7-dihydro-5H-benzo[5,6][1,4]diazepino[7,1-a]indole-10-carboxylic acid dihydrochloride]",< 100
